Consider four compounds from patent US8642620B2, “Heteroaryl-substituted amides comprising an unsaturated or cyclic linker group, and their use as pharmaceuticals” (Sanofi, priority 2005, dated 2014).

The test system of data set [1] is eNOS promoter. Kind of data set: Activation of eNOS transcription (eNOS promoter-luciferase reporter gene assay). Type of data set: cell-based. The conditions noted are these: human endothelial cell line stably transfected with eNOS promoter-luciferase construct; 18 h incubation; EC50 determined graphically; read-out: EC50 values of transcription induction ratios (TIR). As for the experimental part: Activation of eNOS transcription was measured as described in detail by Li et al., “Activation of protein kinase C alpha and/or epsilon enhances transcription of the human endothelial nitric oxide synthase gene”, Mol. Pharmacol. 53 (1998) 630. Briefly, a 3.5 kB long fragment 5′ of the starting codon of the eNOS gene was cloned, sequenced and cloned in firefly luciferase expression plasmids to monitor activation of the eNOS promoter by reporter gene activity. A human endothelial cell line stable transfected and expressing this promoter-reporter construct was used for compound testing. Cells were incubated for 18 h with the compounds.
All compounds were dissolved in sterile dimethyl sulfoxide (DMSO). A final concentration of 0.5% DMSO in complete medium was allowed. Induction of reporter gene expression in these cells was measured using a standard luciferase assay system (Promega, Cat. No. E150) according to the manufacturer's instructions. Luciferase induction in cells incubated with compounds were compared to those incubated with solvent alone. The ratio of both activities (transcription induction ratio, TIR) was plotted as a function of compound concentration. Typically, TIR values started at low concentrations at a ratio of 1, indicating no compound effect, and extended up to a maximum TIR value TIR(max) which indicates the increase of the eNOS transcription. EC50 values of transcription induction ratios as a function of compound concentration were determined graphically.

Counter-ions that a name gives are not always drawn.

The term melting point denotes the temperature of the solid-liquid transition. Turning to `O=C1CNC(=O)N1C1CC1c1ccc(-c2ccc(F)c(Cl)c2)nc1` (racemic) [Example 21, 3-((E)-2-(6-(3-Chloro-4-fluorophenyl)pyridin-3-yl)cyclopropyl)imidazolidine-2,4-dione], the melting point was 172 °C. Moreover, in data set [1], the EC50 was less than 500 nM. With `O=C1CCCC(=O)N1CC#Cc1ccc(-c2ccccc2F)nc1` [Example 2, 1-(3-(6-(2-Fluorophenyl)pyridin-3-yl)prop-2-ynyl)piperidine-2,6-dione trifluoroacetic acid salt], in data set [1], the EC50 lay within 500 to 5000 nM. In the case of `O=c1ccccn1C/C=C/c1nc(-c2ccc(F)cc2)cs1` [Example 3, 1-(3-(4-(4-Fluorophenyl)thiazol-2-yl)allyl)-1H-pyridin-2-one], in data set [1], the EC50 lay in the range of 500 to 5000 nM. As for `CC1(C)NC(=O)N(C/C=C/c2ccc(-c3ccc(F)cc3)nc2)C1=O` [Example 11, 3-(3-(6-(4-Fluorophenyl)pyridin-3-yl)allyl)-5,5-dimethylimidazolidine-2,4-dione trifluoroacetic acid salt], the EC50 in data set [1] fell in the range of 500 to 5000 nM.
